Assay results taken from patent US12558320B2, “Method of preparing a solid dosage form and a lubricant” (Evonik Operations GmbH, priority 2019, dated 2026).

Test: Quantification of stearic acid and palmitic acid in water after homogenization, centrifugation and filtration
Assay type: physicochemical
Description: For the quantification of stearic acid and palmitic acid in water from magnesium stearate alone 1 mg magnesium stearate was added in water under high shear homogenization and mixed for 15 min under continuous homogenization. After homogenization, the prepared dispersion was centrifuged to remove bigger particle size. The supernatant solution was then filtered through 0.2-micron nylon syringe filter and the filtrate was analyzed for content of stearic acid and palmitic acid. […] After homogenization, the prepared dispersion was centrifuged to remove bigger particle size. The supernatant solution was then filtered through 0.45 μm (B1) or 0.2 μm (B2) nylon syringe filter and the filtrate were analyzed for content of stearic acid and palmitic acid.

Magnesium stearate
Palmitic acid (powder, unfiltered): 49.35 % w/w
Stearic acid (powder, unfiltered): 50.64 % w/w
Palmitic acid (water, 0.2 μm filtered): 2.91 % w/w
Stearic acid (water, 0.2 μm filtered): 0.00 % w/w
Total fatty acid in media (water, 0.2 μm filtered): 2.91%
